The source of these data is patent US20260347364A1, “PYRAZOLO[4,3-F]QUINAZOLINE DERIVATIVES AS MODULATORS OF G12D MUTANT KRAS USEFUL FOR THE TREATMENT OF CANCER” (JAZZ PHARMACEUTICALS IRELAND LTD., priority 2023, published 2026).

The target of one experiment is T1, KRAS G12D (Homo sapiens, UniProt P01116, G12D).
T1 construct: aa1-188 KRAS WT, HRAS WT, NRAS WT, or KRAS containing the G12D
Put plainly: HTRF nucleotide exchange assay, KRAS G12D. The format is biochemical. The conditions noted are these: class symbols; for IC50: HTRF nucleotide exchange assay (NEA).

A further experiment concerns the target T2, KRAS WT (Homo sapiens, UniProt P01116).
T2 construct: aa1-188 KRAS WT
Put plainly: HTRF nucleotide exchange assay, KRAS WT. Format: biochemical. The settings on record: class symbols; for IC50: HTRF nucleotide exchange assay (NEA). A general note: Time-resolved FRET reads energy transfer from a long-lived donor to a nearby acceptor.

The term IC50 denotes the concentration that inhibits the measured activity by half. A higher IC50 goes with weaker potency. As for `Cc1c(-c2ccc(F)c3sc(N)c(C#N)c23)c2nn(C)cc2c2c(N3CCCn4nc(C(=O)N(C)C)cc4C3)nc(OC[C@@]34CCCN3C[C@H](F)C4)nc12` [Example 101, 5-[4-(2-amino-3-cyano-7-fluoro-benzothiophen-4-yl)-7-[[(2R,8S)-2-fluoro-1,2,3,5,6,7-hexahydropyrrolizin-8-yl]methoxy]-2,5-dimethyl-pyrazolo[4,3-f]quinazolin-9-yl]-N,N-dimethyl-4,6,7,8-tetrahydropyrazolo[1,5-a][1,4]diazepine-2-carboxamide], the IC50 against KRAS G12D and on KRAS WT was at most 10 nM in each case.

On to `CCc1c(F)ccc2cc(O)cc(-c3c(F)c4nc(OC[C@@]56CCCN5C[C@H](F)C6)nc(N5CCOCC(O)C5)c4c4cn(C)nc34)c12` (stereo partly drawn) [Example 223, 4-[4-(8-ethyl-7-fluoro-3-hydroxy-1-naphthyl)-5-fluoro-7-[[(2R,8S)-2-fluoro-1,2,3,5,6,7-hexahydropyrrolizin-8-yl]methoxy]-2-methyl-pyrazolo[4,3-f]quinazolin-9-yl]-1,4-oxazepan-6-ol], for which the IC50 at KRAS G12D and on KRAS WT was at most 10 nM in each case.

Consider `CCc1c(F)ccc2cc(O)cc(-c3c(C)c4nc(OC[C@@]56CCCN5C[C@H](F)C6)nc(N5CCCn6nc(C(=O)N(C)C)nc6C5)c4c4cn(C)nc34)c12` (racemic) [Example 198, 8-[4-(8-ethyl-7-fluoro-3-hydroxy-1-naphthyl)-2,5-dimethyl-7-[[rac-(2R,8S)-2-fluoro-1,2,3,5,6,7-hexahydropyrrolizin-8-yl]methoxy]pyrazolo[4,3-f]quinazolin-9-yl]-N,N-dimethyl-5,6,7,9-tetrahydro-[1,2,4]triazolo[1,5-a][1,4]diazepine-2-carboxamide], for which the IC50 against KRAS G12D and on KRAS WT was at most 10 nM throughout.

Regarding `CCc1c(F)ccc2cc(O)cc(-c3c(C)c4nc(OCC5(C#N)CCOC5)nc(N5CC6CCC(C5)N6)c4c4cn(C)nc34)c12` (stereo not shown) [Example 241, 3-[[9-(3,8-diazabicyclo[3.2.1]octan-3-yl)-4-(8-ethyl-7-fluoro-3-hydroxy-1-naphthyl)-2,5-dimethyl-pyrazolo[4,3-f]quinazolin-7-yl]oxymethyl]tetrahydrofuran-3-carbonitrile], the IC50 on KRAS G12D is at most 10 nM; against KRAS WT, 100 to 10000 nM.

Consider `CCc1c(F)ccc2cc(O)cc(-c3c(F)c4nc(OCC5(C#N)CCOC5)nc(N5CC6CCC(C5)N6)c4c4cn(C)nc34)c12` (stereo not shown) [Example 168, 3-[[9-(3,8-diazabicyclo[3.2.1]octan-3-yl)-4-(8-ethyl-7-fluoro-3-hydroxy-1-naphthyl)-5-fluoro-2-methyl-pyrazolo[4,3-f]quinazolin-7-yl]oxymethyl]tetrahydrofuran-3-carbonitrile], for which the IC50 against KRAS G12D was at most 10 nM; against KRAS WT, 100 to 10000 nM.

Turning to `Cn1cc2c(n1)c(-c1cc(O)cc3c1C(=O)CCC3)cc1nc(OC[C@@]34CCCN3C[C@H](F)C4)nc(N3CCCOCC3)c12` [Example 58, 6-hydroxy-8-[2-methyl-9-(1,4-oxazepan-4-yl)-7-[[(2R,8S)-2-fluoro-1,2,3,5,6,7-hexahydropyrrolizin-8-yl]methoxy]pyrazolo[4,3-f]quinazolin-4-yl]tetralin-1-one], at KRAS G12D, the “KRAS^G12D NEA” value is “D (<49% inhibition at 10 μM)”. The “KRAS^WT NEA” value at KRAS WT was “D (<49% inhibition at 10 μM)”.

Regarding `CCc1c(F)ccc2cc(O)cc(-c3cc4nc(OC[C@@]56CCCN5C[C@H](F)C6)nc(N5CCC5C(C)(C)O)c4c4cn(C)nc34)c12` (stereo partly drawn) [Example 135, 5-ethyl-6-fluoro-4-[9-[2-(1-hydroxy-1-methyl-ethyl)azetidin-1-yl]-2-methyl-7-[[(2R,8S)-2-fluoro-1,2,3,5,6,7-hexahydropyrrolizin-8-yl]methoxy]pyrazolo[4,3-f]quinazolin-4-yl]naphthalen-2-ol], the IC50 fell in the range of 100 to 10000 nM on KRAS G12D and 10 to 100 nM against KRAS WT.

Turning to `CCc1c(F)ccc2cc(O)cc(-c3cc4nc(OC[C@@]56CCCN5C[C@H](F)C6)nc(N5C6CCC5CN(CCCO)C6)c4c4cn(C)nc34)c12` [Example 89, 5-ethyl-6-fluoro-4-[7-[[(2R,8S)-2-fluoro-1,2,3,5,6,7-hexahydropyrrolizin-8-yl]methoxy]-9-[3-(3-hydroxypropyl)-3,8-diazabicyclo[3.2.1]octan-8-yl]-2-methyl-pyrazolo[4,3-f]quinazolin-4-yl]naphthalen-2-ol], the half-maximal inhibitory concentration (IC50) against KRAS G12D is at most 10 nM; at KRAS WT, 100 to 10000 nM.

At KRAS G12D, `Cn1cc2c(n1)c(-c1cc(O)ccc1F)cc1nc(OC[C@@]34CCCN3C[C@H](F)C4)nc(N3CCCOCC3)c12` [Example 5] registered a half-maximal inhibitory concentration (IC50) of 100 to 10000 nM. Also, the “KRAS^WT NEA” value on KRAS WT is reported as “D (<49% inhibition at 10 μM)”.

As to `CCc1c(F)ccc2cc(O)cc(-c3cc4nc(OCC56CCCN5CCC6)nc(N5CCCOCC5)c4c4[nH]ncc34)c12` [Example 47, 5-ethyl-6-fluoro-4-[7-(1,2,3,5,6,7-hexahydropyrrolizin-8-ylmethoxy)-9-(1,4-oxazepan-4-yl)-1H-pyrazolo[3,4-f]quinazolin-4-yl]naphthalen-2-ol], the IC50 against KRAS G12D and on KRAS WT was 100 to 10000 nM throughout.

As for `CCc1c(F)ccc2c(F)c(O)cc(-c3cc4nc(OC[C@@]56CCCN5C[C@H](F)C6)nc(N5CCCn6nc(C(=O)N(C)C)cc6C5)c4c4cn(C)nc34)c12` [Example 82, 5-[4-(8-ethyl-4,7-difluoro-3-hydroxy-1-naphthyl)-2-methyl-7-[[(2R,8S)-2-fluoro-1,2,3,5,6,7-hexahydropyrrolizin-8-yl]methoxy]pyrazolo[4,3-f]quinazolin-9-yl]-N,N-dimethyl-4,6,7,8-tetrahydropyrazolo[1,5-a][1,4]diazepine-2-carboxamide], the half-maximal inhibitory concentration (IC50) on KRAS G12D and against KRAS WT was at most 10 nM each time.

Regarding `CCc1c(F)ccc2cc(O)cc(-c3c(F)c4nc(OC[C@]5(C)CCCN5)nc(N5CCOCC(C)(O)C5)c4c4cn(C)nc34)c12` (stereo partly drawn) [Example 159, 4-[4-(8-ethyl-7-fluoro-3-hydroxy-1-naphthyl)-5-fluoro-2-methyl-7-[[(2S)-2-methylpyrrolidin-2-yl]methoxy]pyrazolo[4,3-f]quinazolin-9-yl]-6-methyl-1,4-oxazepan-6-ol], the IC50 at KRAS G12D and against KRAS WT was at most 10 nM in each case.

For `CCc1c(F)ccc2cc(O)cc(-c3cc4nc(OC[C@@]56CCCN5C[C@H](F)C6)nc(N5CCOCC(C)(O)C5)c4c4cn(C)nc34)c12` (stereo partly drawn) [Example 8, 4-[4-(8-ethyl-7-fluoro-3-hydroxy-1-naphthyl)-2-methyl-7-[[(2R,8S)-2-fluoro-1,2,3,5,6,7-hexahydropyrrolizin-8-yl]methoxy]pyrazolo[4,3-f]quinazolin-9-yl]-6-methyl-1,4-oxazepan-6-ol], the IC50 against KRAS G12D and at KRAS WT was at most 10 nM in each case.

`CCc1c(F)ccc2cc(O)cc(-c3cc4nc(OC[C@@]56CCCN5C[C@H](F)C6)nc(N5CCCC(O)(C(C)C)C5)c4c4cn(C)nc34)c12` (stereo partly drawn) [Example 134, 1-[4-(8-ethyl-7-fluoro-3-hydroxy-1-naphthyl)-2-methyl-7-[[(2R,8S)-2-fluoro-1,2,3,5,6,7-hexahydropyrrolizin-8-yl]methoxy]pyrazolo[4,3-f]quinazolin-9-yl]-3-isopropyl-piperidin-3-ol] showed an IC50 against KRAS G12D of 100 to 10000 nM. Also, the “KRAS^WT NEA” value on KRAS WT is listed as “D (<49% inhibition at 10 μM)”.
